# Measurements reported in the NIST ThermoML archive (doi:10.1016/j.jct.2011.12.024).
# ± gives the expanded uncertainty stated by the source.
# Experiment: refractive index (other wavelength) (dimensionless); xn = mol fraction of the nth substance listed
# Conditions: 101.33 kPa, Liquid, Wavelength=632.8 nm, Standard Abbe refractometry
structure (smiles),measurement,setting,value
"COC(=O)CCCCC(=O)OC [dimethyl 1,6-hexanedioate] + CCCCCCC",refractive index,"289.5 K, x1 = 1",1.4287 ± 0.0004
same,refractive index,"291.65 K, x1 = 1",1.4279 ± 0.0004
same,refractive index,"292.22 K, x1 = 0.1018",1.3909 ± 0.0005
same,refractive index,"292.85 K, x1 = 0.5999",1.412 ± 0.0005
same,refractive index,"293.07 K, x1 = 0.7009",1.4159 ± 0.0005
same,refractive index,"293.2 K, x1 = 0.8979",1.4236 ± 0.0005
same,refractive index,"293.27 K, x1 = 0.1018",1.3904 ± 0.0005
same,refractive index,"293.28 K, x1 = 0.8048",1.42 ± 0.0005
same,refractive index,"293.87 K, x1 = 0.5999",1.4115 ± 0.0005
same,refractive index,"294.11 K, x1 = 0.8979",1.4232 ± 0.0005
same,refractive index,"294.12 K, x1 = 0.7009",1.4155 ± 0.0005
same,refractive index,"294.22 K, x1 = 0.8048",1.4196 ± 0.0005
same,refractive index,"294.37 K, x1 = 0.1018",1.3898 ± 0.0005
same,refractive index,"294.86 K, x1 = 0.5999",1.4111 ± 0.0005
same,refractive index,"294.9 K, x1 = 1",1.4265 ± 0.0004
same,refractive index,"294.96 K, x1 = 0.2007",1.398 ± 0.0005
same,refractive index,"295.01 K, x1 = 0.8979",1.4228 ± 0.0005
same,refractive index,"295.12 K, x1 = 0.8048",1.4192 ± 0.0005
same,refractive index,"295.15 K, x1 = 0.7009",1.415 ± 0.0005
same,refractive index,"295.39 K, x1 = 0.1018",1.3893 ± 0.0005
same,refractive index,"295.61 K, x1 = 0.3992",1.402 ± 0.0004
same,refractive index,"295.8 K, x1 = 0.4976",1.4062 ± 0.0005
same,refractive index,"295.83 K, x1 = 0.5999",1.4107 ± 0.0005
same,refractive index,"295.94 K, x1 = 0.8979",1.4224 ± 0.0005
same,refractive index,"295.95 K, x1 = 0.2007",1.3975 ± 0.0005
same,refractive index,"296.09 K, x1 = 0.8048",1.4188 ± 0.0005
same,refractive index,"296.15 K, x1 = 0.7009",1.4146 ± 0.0005
same,refractive index,"296.45 K, x1 = 0.1018",1.3888 ± 0.0007
same,refractive index,"296.65 K, x1 = 0.3992",1.4016 ± 0.0004
same,refractive index,"296.81 K, x1 = 0.5999",1.4103 ± 0.0005
same,refractive index,"296.89 K, x1 = 0.8979",1.422 ± 0.0005
same,refractive index,"296.9 K, x1 = 0.4976",1.4056 ± 0.0005
same,refractive index,"296.91 K, x1 = 0.2007",1.3971 ± 0.0005
same,refractive index,"296.94 K, x1 = 1",1.4257 ± 0.0004
same,refractive index,"297.08 K, x1 = 0.8048",1.4184 ± 0.0005
same,refractive index,"297.23 K, x1 = 0.7009",1.4142 ± 0.0005
same,refractive index,"297.45 K, x1 = 0.1018",1.3883 ± 0.0007
same,refractive index,"297.64 K, x1 = 0.3992",1.4011 ± 0.0004
same,refractive index,"297.81 K, x1 = 0.8979",1.4216 ± 0.0005
same,refractive index,"297.87 K, x1 = 0.5999",1.4098 ± 0.0005
same,refractive index,"297.95 K, x1 = 0.4976",1.4052 ± 0.0005
same,refractive index,"298.02 K, x1 = 0.2007",1.3965 ± 0.0004
same,refractive index,"298.02 K, x1 = 0.8048",1.418 ± 0.0005
same,refractive index,"298.15 K, x1 = 0.7009",1.4138 ± 0.0005
same,refractive index,"298.66 K, x1 = 0.3992",1.4007 ± 0.0005
same,refractive index,"298.92 K, x1 = 0.4976",1.4048 ± 0.0005
same,refractive index,"299.11 K, x1 = 0.2007",1.396 ± 0.0004
same,refractive index,"299.7 K, x1 = 0.3992",1.4002 ± 0.0005
same,refractive index,"299.93 K, x1 = 0.4976",1.4043 ± 0.0005
same,refractive index,"300.15 K, x1 = 0.2007",1.3955 ± 0.0004
same,refractive index,"300.67 K, x1 = 0.3992",1.3997 ± 0.0005
same,refractive index,"300.93 K, x1 = 0.4976",1.4039 ± 0.0005
same,refractive index,"301.21 K, x1 = 0.2007",1.395 ± 0.0004
same,refractive index,"301.74 K, x1 = 0.3992",1.3992 ± 0.0005
same,refractive index,"301.98 K, x1 = 0.4976",1.4034 ± 0.0005
